Data reported in BindingDB's records for doi:10.1016/S1074-5521(02)00310-1 (Tohoku University, 2003).
pIC50: −log10 of the molar value.

Molecular target: T1, Peptidyl-prolyl cis-trans isomerase ESS1 (Saccharomyces cerevisiae (strain ATCC 204508 / S288c), UniProt P22696)
T1 sequence (P22696 whole entry): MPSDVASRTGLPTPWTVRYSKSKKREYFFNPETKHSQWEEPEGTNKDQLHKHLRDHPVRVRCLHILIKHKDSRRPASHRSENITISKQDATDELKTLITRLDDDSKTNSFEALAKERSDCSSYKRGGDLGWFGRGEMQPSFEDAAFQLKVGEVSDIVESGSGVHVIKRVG
Test: Pin1 Inhibition Assay
Conditions: pH 7; 0 °C
Method: Assay was carried out measuring the MCA fluorescence using Suc-Ala-Glu-Pro-Phe-MCA as substrate purchased from Japan Peptide Institute Co.

| pIC50 | Structure (SMILES) |
| --- | --- |
| < 5.00 | CC(C)C[C@H](NC(=O)c1[nH]cnc1C(=O)N[C@@H](C)C(=O)OC(C)(C)C)C(=O)OCc1ccccc1 [(phenylmethyl) (2S)-4-methyl-2-[[4-[[(2S)-1-[(2-methylpropan-2-yl)oxy]-1-oxidanylidene-propan-2-yl]carbamoyl]-1H-imidazol-5-yl]carbonylamino]pentanoate] |
| < 5.82 | CC(C)C[C@H](NC(=O)c1[nH]cnc1C(=O)N1CCc2ccccc2C1)C(=O)OCc1ccccc1 [(2S)-2-[[[5-[3,4-dihydro-1H-isoquinolin-2-yl(oxo)methyl]-1H-imidazol-4-yl]-oxomethyl]amino]-4-methylpentanoic acid (phenylmethyl) ester] |
| < 5.00 | COc1ccc(C2/C=C\CN(C(=O)c3ccccc3)CC(=O)N2Cc2ccc(F)cc2)cc1 (stereo not drawn) |
| < 5.00 | O=C(O)CN1C(=O)c2cccc3cccc(c23)C1=O [(1,3-dioxo-1H-benzo[de]isoquinolin-2(3H)-yl)acetic acid] |
| 5.30 | Cc1ccc(-c2cc([C@H]3[C@@H]4C=CCC[C@@]4(C)C(=O)N3Cc3ccccc3)ccc2F)cc1 [(3R,3aR,7aR)-3-[4-fluoro-3-(4-methylphenyl)phenyl]-7a-methyl-2-(phenylmethyl)-3,3a,6,7-tetrahydroisoindol-1-one] |
| < 5.00 | COc1ccccc1-c1cc(=O)c2c(O)ccc([N+](=O)[O-])c2o1 [MLS000518626] |
| < 5.00 | CCOC(=O)c1ccc(NC(=O)c2[nH]cnc2C(=O)N[C@@H](Cc2ccccc2)C(=O)OC(C)(C)C)cc1 [ethyl 4-[[5-[[(2S)-1-[(2-methylpropan-2-yl)oxy]-1-oxidanylidene-3-phenyl-propan-2-yl]carbamoyl]-1H-imidazol-4-yl]carbonylamino]benzoate] |
| 5.70 | CC[C@@H]1CC=C[C@H]2[C@H]1C(=O)N(Cc1ccccc1)[C@H]2c1ccc(OC)c(Cl)c1 [(3R,3aS,7R,7aS)-3-(3-chloranyl-4-methoxy-phenyl)-7-ethyl-2-(phenylmethyl)-3a,6,7,7a-tetrahydro-3H-isoindol-1-one] |
| 5.60 | CCOC(=O)c1ccc(NC(=O)c2[nH]cnc2C(=O)N[C@@H](CCCCNC(=O)OC(C)(C)C)C(=O)OC(C)(C)C)cc1 [MLS000849609] |
| 5.30 | COc1ccc(C2CC(O)(c3ccccc3)Oc3c(C)ccc(C)c32)cc1 (stereo not drawn) [4-(4-methoxyphenyl)-5,8-dimethyl-2-phenyl-chroman-2-ol] |
| 5.30 | COc1ccc(Br)cc1[C@H]1[C@@H]2C=CCC[C@@]2(C)C(=O)N1Cc1ccccc1 [(3R,3aR,7aR)-2-benzyl-3-(5-bromo-2-methoxy-phenyl)-7a-methyl-3,3a,6,7-tetrahydroisoindol-1-one] |
| < 5.00 | Cc1cccc(NC(=O)c2[nH]cnc2C(=O)N[C@@H](CCCCNC(=O)OC(C)(C)C)C(=O)OC(C)(C)C)c1 [ILP-IV-14] |
| 5.82 | C[C@@]12CCC=C[C@H]1[C@H](c1ccc3ccccc3c1Br)N(Cc1ccccc1)C2=O [(3R,3aR,7aR)-3-(1-bromanylnaphthalen-2-yl)-7a-methyl-2-(phenylmethyl)-3,3a,6,7-tetrahydroisoindol-1-one] |
